# Test results: patent publication US11633370B2, “Use of scavengers of reactive gamma-ketoaldehydes to extend cell lifespan and healthspan” (Vanderbilt University, priority 2016, dated 2023)
# Key:
# N2 WT C. elegans [1] = experiment: Lipofuscin autofluorescence measurement, N2; assay type: in vivo; conditions: 100 μM or 500 μM SA versus vehicle control; p<0.01
# Excerpt: To quantify this, the present inventors chose both a biochemical endpoint (lipofuscin autofluorescence) and a behavioral measure (pharyngeal pumping) that change predictably with aging and are associated with healthspan. The accumulation in the nematode intestinal epithelium of autofluorescent lipofuscin granules, a heterogeneous mixture of oxidized and crosslinked lipids and proteins and advanced glycation end products, is a known conserved phenomenon observed to increase with age. Visualization of lipofuscin granules is often used as an age-related assessment of healthspan. Lipofuscin autofluorescence were quantified over time (every 5 days) in N2 adult nematodes (10-20 per colony) in the presence of increasing doses of SA. SA response profiles were generated from integrating the area-under-the-curve (AUC) of fluorescent intensity as a function of time (FIG. 1C). […] For a behavioral/functional measurement of health, pharyngeal pumping rates were quantified. […] Pharyngeal pumping rates quantified in WT N2 worms established on OP50-seeded NGM agar plates with increasing concentrations of SA. The frequency of pharyngeal pumping was measured and recorded every fifth day as the animals aged.
# Synchronized late L4/early young adult worms were plated on FUDR containing SA-OP50-seeded NGM plates and worms were maintained at 20° C. […] The fluorescence was calculated using ImageJ software.
# N2 WT C. elegans [2] = experiment: IsoK-lysyl-lactam protein adduct quantification by LC/MS/MS; assay type: in vivo; conditions: increasing concentrations of SA until day 15, versus vehicle control; p<0.01
# Excerpt: The mechanism by which IsoKs inactivate protein targets involves covalent adduction of the epsilon amine group on the side chains of lysine residues within target proteins (FIG. 2A). The initial product of this covalent adduction is a lactam ring structure composed of the lysyl side chain and the isoketal. SA's amine group is much more reactive toward IsoKs and preserves protein function by more rapidly forming an adduct with the IsoK, preventing the adduction of lysyl side chains. If this mechanism is operative in vivo when C. elegans are treated with SA, a dose-dependent reduction in IsoK-lysyl-lactam adducts should be observed. To test this directly, WT N2 worms were treated with vehicle or increasing concentrations of SA until day 15, then collected for IsoK-lysyl-lactam adduct quantification by liquid chromatography tandem mass spectrometry (LC/MS/MS) using a heavy isotope-labeled internal standard for quantification.
# Worms grown on FUDR containing SA-OP50-seeded NGM plates were collected at Day 15 adult stage by washing in M9 medium, followed by an ice-cold 60% w/v sucrose gradient to segregate clean bacteria-free adult worms from bacterial debris. Clean worms were transferred to Eppendorf tubes and flash-frozen in liquid nitrogen and thawed at 37° C. 3×. […] Levels of IsoK-lysyl-lactam adduct was measured as previously described. […]
# [3] = tested on: VC199 non-functional SIR-2.1 mutants; experiment: Real-time RT-PCR of ets-7, VC199; assay type: in vivo, C. elegans; conditions: highest dose of SA, Day 15 VC199; p<0.01
# Excerpt: First, to validate the microarray results, the present inventors performed real-time RT-PCR on four genes, siah-1, sma-4, F13D12.6, and ets-7 (FIG. 6B). […] Messenger RNA levels for siah-1 and sma-4 were decreased by nearly 25%, as well as F13D12.6 and ets-7 were increased by nearly 25% by SA administration (p<0.05). Pathway Analysis using Gene Ontology (GO) with WEB-based Gene SeT Analysis Toolkit (WEBGESTALT <http://bioinfo.vanderbilt.edu/webgestalt/>) highlighted the metabolic process, lipid metabolic process, proteolysis pathways among many others as being altered favorably by the administration of SA (see Supplemental Data). From the array data confirmed by RT-PCR, the present inventors identified the ETS class transcription factor ETS-7 as a protein of interest. ETS factors are known to be involved in regulating lipid metabolism and regulate lifespan in both Drosophila melanogaster and C. elegans. […] In order to test this, the present inventors carried out real-time RT-PCR quantification of ets-7 in non-functional SIR-2.1 mutant nematodes treated with increasing doses of SA (FIG. 6E).
# Total RNA was isolated via the Trizol method, as described previously. […] Quantitative real time PCR (Bio-Rad) was conducted using TaqMan Gene Expression Assay Probes (Life Technologies) for each gene. […]
smiles,measurement,setting,value
"NCc1ccccc1O [SA, salicylamine]",age-associated lipofuscin accumulation (AUC of autofluorescence over time),N2 WT C. elegans [1],significant reduction
same,IsoK-lysyl-lactam adduct levels,N2 WT C. elegans [2],"significant, dose-dependent reduction"
same,increase in ets-7 mRNA expression,[3],442%
